Measurements as given in patent publication US20140341837A1, “Ferrate and Povidone Iodine (PI) Composition” (Biolife, L.L.C., priority 2010, published 2014).

What was measured:
[1] = on dilution; cited from earlier work
[2] = standard hemostasis strength device; conditions: povidone iodine at 10%
Protocol: A mixture of various iron sources, chelation compounds, and active antimicrobials was tested using the recovered biofilm from WU according to the matrix in Table III.
Each mixture was tested in a standard hemostasis strength device described in detail in FDA 510k filing, K080210, incorporated herein in its entirety, and in the standardized 96 unit biofilm eradication test device also described in the 510k filing. The results were indexed* to #12, the ferrate/resin/10% PI powder.

[3] = stability of PI in the dry powder; format: physicochemical; conditions: very dry environment of the powder
Excerpt: The PI is stable in this very dry environment.

[4] = cited from earlier work

## PVP-Iodine [PI]
[1]
  solution strength at maximum content of uncomplexed iodine: 0.1%
[2]
  effect of PI addition on hemostatic efficiency: does not affect the hemostatic efficiency
[3]
  stability of PI: stable
[4]; 5-10% PI
  efficacy at concentrations of 5-10% PI: ineffective
[4]; pamphlet FIG. 2
  I2 concentration of non-effective kill: < 0.001%
